Values quoted from earlier work in patent US11191849B2, “Compositions and methods for delivering messenger RNA” (ARBUTUS BIOPHARMA CORPORATION, priority 2016, dated 2021).

| Compound | log P |
| --- | --- |
| CCC(=O)O[C@]1(C(=O)CCl)[C@@H](C)C[C@H]2[C@@H]3CCC4=CC(=O)C=C[C@]4(C)[C@@]3(F)[C@@H](O)C[C@@]21C [Clobetasol, clobetasol-17-propionate] | ~3.5 |
| CCCCCCCCCCCCCCCC(=O)OCC(=O)[C@@]1(O)[C@H](C)C[C@H]2[C@@H]3CCC4=CC(=O)C=C[C@]4(C)[C@@]3(F)[C@@H](O)C[C@@]21C [Dex-P, Dexamethasone 21-palmitate] | ~9 |
| CC(C)C(=O)OCC(=O)[C@@]12O[C@H](C3CCCCC3)O[C@@H]1C[C@H]1[C@@H]3CCC4=CC(=O)C=C[C@]4(C)[C@H]3[C@@H](O)C[C@@]12C [Ciclesonide] | ~5.3 |
